Test results as given in PubChem BioAssay AID1645848.
Values after ≈ are worked out from the molar mass of the structure shown.

Conditions: buffer; pH 7.4; 6.0 h; 150.0 µM

Row | SMILES | solubility kinetic [µg/mL]
1 | Cc1cc(C)c(CNC(=O)c2nc(-c3ccc(F)cc3)cc3c2ccn3C(C)C)c(=O)[nH]1 | < 1
2 | Cc1cnc(-c2ccccc2C(C)C)nc1NCC1CCN(C2COC2)CC1 | > 56
3 | CCN1CCC(N(Cc2ccc3c(c2)OCO3)C(=O)Nc2cc(Cl)ccc2C(=O)OC)CC1 | 58.5 (≈ 123 µM)
4 | O=C(Nc1cccc(C(F)(F)F)c1)c1cc2nc(-c3ccccc3)cc(C(F)(F)F)n2n1 | < 1
5 | Clc1ccc(-c2nc(-c3ccc(Br)o3)no2)c(Cl)c1 | < 1
6 | Cc1c(NC2=C(Cl)C(=O)N(c3ccccc3)C2=O)c(=O)n(-c2ccccc2)n1C | < 1
7 | FC(F)(F)c1cccc(N2CCN(C(=S)Nc3nccc4ccccc34)CC2)c1 | < 1
8 | Cc1ccc(S(=O)(=O)Nc2ccc(Cl)cc2C(=O)Nc2nc(-c3ccccc3)cs2)cc1 | < 1
9 | CCOC(=O)C1CCN(c2ncc(-c3ccc4c(c3)OCCCO4)s2)CC1 | < 1
10 | CC1=C(C(=O)NCc2ccccc2)C(c2ccccc2Br)N=C(Nc2nc3ccccc3o2)N1 (centres undefined) | < 1
11 | Nc1nc2c(s1)C(c1cc(Cl)ccc1F)CC(=O)N2 (centres undefined) | 3.78 (≈ 12.7 µM)
12 | Cc1cnc(-c2ccccc2C2COC2)nc1NCC1CCN(c2cccnc2)CC1 | > 61
13 | CCCCc1ccc(NC(=O)c2ccc3c(c2)N(S(C)(=O)=O)CC3)cc1 | 1.08 (≈ 2.91 µM)
14 | CCCCCn1c(CCCNC(=O)c2ccccc2OC)nc2ccccc21 | 32.3 (≈ 85.2 µM)
15 | COc1ccc(Cn2c(C(=O)O)c(CNCc3ccco3)c3ccc(C)cc32)cc1 | > 60
16 | Cn1c(=O)cc(C(=O)NC2CCCc3c2[nH]c2c(Cl)cccc32)c2ccccc21 (centres undefined) | < 1
17 | Cc1cccc(CS(=O)(=O)c2ncc(Cl)c(C(=O)Nc3nc4ccc(F)cc4s3)n2)c1 | < 1
18 | CC1(C)CC2CC(C)(CN2S(=O)(=O)c2ccc(C(=O)Nc3ccc(Cl)cc3)cc2)C1 (centres undefined) | < 1
19 | NC(=O)C1CCN(c2nc(-c3cccc(Cl)c3)cs2)CC1 | 10.6 (≈ 32.9 µM)
20 | COc1ccc(-c2cnc(N3CCC(C(N)=O)CC3)s2)cc1OC | 18.8 (≈ 54 µM)
21 | C/C(=N\NC(N)=S)C1=CCC2C3CC[C@H]4CC(O)CC[C@]4(C)C3CC[C@]12C (some centres undefined) | < 1
22 | O=C(c1ccc2c(c1)OCO2)N1CCC(Cc2nc(-c3cnccn3)no2)CC1 | > 39
23 | NCC(=O)Nc1cncc(-c2nn3c(=O)cc(N4CCNCC4)nc3s2)c1 | > 57
24 | Cc1ccc(S(=O)(=O)Nc2cnccc2C(=O)Nc2nc(-c3ccc4c(c3)CCCC4)cs2)cc1 | < 1
25 | Cc1cc(-c2nnc3n2CCCCC3)c(C)n1-c1ccc(Cl)cc1 | 25.9 (≈ 75.9 µM)

Row | SMILES | solubility kinetic [µg/mL]
26 | Nc1ncnc2c1c(-c1cnc3[nH]ccc3c1)nn2C1CCCC1 | > 47
27 | CCOc1ccc(CCNC(=O)c2ccc(C3(C(F)(F)F)N=N3)cc2)cc1OCC | < 1
28 | CN(C)C(=O)c1cc(-c2ccc(S(C)(=O)=O)cc2)c2cnn(C)c2n1 | > 53
29 | Cc1nn(Cc2ccc(Cl)cc2)c(C)c1NC(=O)c1cc(-c2ccc3c(c2)OCO3)on1 | < 1
30 | COc1ccc(-n2nc(C3CCCN(C(=O)C4CC4)C3)[nH]c2=O)cc1 (centres undefined) | > 51
31 | Nc1ncc(S(=O)(=O)N2CCN(c3ccccc3)CC2)cn1 | 1.13 (≈ 3.53 µM)
32 | O=S(=O)(Nc1cccc2cccnc12)c1ccc(NCc2ccc(Br)cc2O)cc1 | < 1
33 | CC(C)c1ccccc1-c1ncc(F)c(NC(C)(C)c2ccc(-c3cccnc3)cc2)n1 | < 1
34 | O=C(NCCc1nc2ccccc2n1CCO)C1CCCCC1 | > 47
35 | CCN(c1ccccc1)S(=O)(=O)c1c(C)nc2scc(C)n2c1=O | > 54
36 | Cc1ccc(NC(=O)NCC2CCN(Cc3cccc(Cl)c3)CC2)cc1Cl | < 1
37 | CC(C)c1cc(C(=O)N2CC[C@@H](NC(=O)C3CC3)C2)n[nH]1 | > 43
38 | O=C1Nc2ccccc2/C1=C\c1ccc(O)cc1 | 0.999 (≈ 4.21 µM)
39 | CCCCn1cc2c(c1-c1ccc(Br)cc1)c(=O)n(C)c(=O)n2C | < 1
40 | CN(C)c1cccc(-c2cnc(Nc3cccnc3)c3c2CCO3)c1 | < 1
41 | O=C(Nc1cccc(C(F)(F)F)c1)Nc1cc(S(=O)(=O)NC2CC2)ccc1-c1ccsc1 | < 1
42 | COc1ccc2c3c([nH]c2c1)C1CC2C(CC(O)C(OC)C2CO)CN1CC3 (centres undefined) | > 57
43 | CCOC(=O)c1ccc(N2C(=O)c3n[nH]c(-c4cccs4)c3C2c2ccc(OCC)cc2)cc1 (centres undefined) | < 1
44 | Cc1ccc(S(=O)(=O)Nc2ccccc2C(=O)Nc2nc(-c3ccccc3)cs2)cc1 | < 1
45 | N#C/C(=C\c1ccc(-c2ccc(C(=O)O)cc2)o1)c1nc2ccccc2[nH]1 | < 1
46 | Cn1nnnc1Sc1ncnc2sccc12 | > 37
47 | Cc1ccc(S(=O)(=O)NCCC(=O)Nc2nc(-c3ccccc3)cs2)cc1 | < 1
48 | O=C(Nc1ncc(Cc2ccc(C(F)(F)F)cc2)s1)c1ccc(-c2ccccc2[N+](=O)[O-])o1 | < 1
49 | NC(=O)COc1cccc(C2CC(=O)Nc3nc(N4CCCCC4)sc32)c1 (centres undefined) | > 57
50 | COc1ccc(-c2nc3ccccc3s2)cc1NC(=O)c1ccc(F)cc1 | < 1

Row | SMILES | solubility kinetic [µg/mL]
51 | O=C1CCCC2=C1C(c1[nH]ncc1Cl)N=C(Nc1nc3cc([S+](=O)([O-])N4CCOCC4)ccc3o1)N2 (centres undefined) | > 78
52 | CN1Cc2c(cc(N3CCOCC3)nc2-c2ccccc2OC(F)(F)F)C1=O | 12.1 (≈ 30.8 µM)
53 | O=S(=O)(Nc1nccs1)c1ccc(NCc2cccc(O)c2)cc1 | > 53
54 | Cc1ccc(S(=O)(=O)Nc2ccccc2C(=O)Nc2ccc(-c3ccccc3)nc2)cc1 | < 1
55 | O=C1Nc2cc(Cl)ccc2Nc2cscc21 | 9.92 (≈ 39.6 µM)
56 | Cc1ccc2c(c1)N(S(=O)(=O)c1cc(-c3onc(C)c3C)ccc1C)CCO2 | < 1
57 | Cc1cc(C)nc(NC(=S)N2CCN(c3ccc(C(F)(F)F)cc3[N+](=O)[O-])CC2)c1 | 6.89 (≈ 15.7 µM)
58 | CC[C@@]1(O)C(=O)OCc2c1cc1n(c2=O)Cc2c-1nc1cc(F)c(C)c3c1c2[C@@H](N)CC3 | 31.9 (≈ 73.3 µM)
59 | CC(C)CNC(=O)c1cn2cc(-c3ccccc3)sc2n1 | 5.33 (≈ 17.8 µM)
60 | Cc1ccc(OCCn2c(CCNC(=O)c3ccc(Cl)cc3)nc3ccccc32)cc1 | < 1
61 | CN1CCN(C2=Nc3ccccc3Sc3ccc(Cl)cc32)CC1 | 18.7 (≈ 54.3 µM)
62 | O=C(Nc1ccc([S+](=O)([O-])Nc2nccs2)cc1)c1ccn[nH]1 | > 52
63 | Nc1nc2c(s1)C(c1ccc(F)c(F)c1)CC(=O)N2 (centres undefined) | > 42
64 | CCCSc1nc(N[C@@H]2C[C@H]2c2ccc(F)c(F)c2)c2nnn([C@@H]3C[C@H](OCCO)[C@@H](O)[C@H]3O)c2n1 | < 1
65 | C[C@H]1CN(C(=O)c2nn(C)c3ccccc23)C[C@@H]1c1nc(-c2cccnc2)no1 | 19.7 (≈ 50.6 µM)
66 | O=C(NCCCO)c1ccc(-c2ncc3cnc(-c4cccc(F)c4)cn23)cc1 | > 86
67 | COc1ccccc1-c1nc(NCc2ccc(-c3cccnc3)cc2)c2ccccc2n1 | < 1
68 | CNc1ncc(-c2cccc3ccccc23)o1 | 25.4 (≈ 113 µM)
69 | COc1ccc(C2c3c(oc4ccc(C)cc4c3=O)C(=O)N2CCCN2CCOCC2)cc1OC (centres undefined) | > 71
70 | Oc1ccc(CNc2cccnc2)c2cccnc12 | 24.5 (≈ 97.5 µM)
71 | NC(=O)C1CCN(c2ncc(-c3cccc(N4CCOCC4)c3)s2)CC1 | > 55
72 | NC(=O)C1CCN(c2nc(-c3ccccc3F)cs2)CC1 | 4.65 (≈ 15.2 µM)
73 | CCOc1cc2ncc(C#N)c(Nc3ccc(OCc4ccccn4)c(Cl)c3)c2cc1NC(=O)/C=C/CN(C)C | < 1
74 | c1ccc(Nc2cc3c(cn2)CN(Cc2c[nH]c4ccccc24)CCN3)cc1 | 43.7 (≈ 118 µM)
75 | CCC(=O)N1CCN(c2ccc(-n3c(=O)ccc4cnc5ccc(-c6cnc7ccccc7c6)cc5c43)cc2C(F)(F)F)CC1 | < 1

Row | SMILES | solubility kinetic [µg/mL]
76 | Cc1ccc(S(=O)(=O)Nc2ccccc2C(=O)Nc2ccc(-c3ccccc3)cn2)cc1 | < 1
77 | Cc1cnc(-c2ccccc2C(C)C)nc1NCC1CCN(c2cccnc2)CC1 | < 1
78 | COc1ccc(Cl)cc1C(=O)Nc1ccc(NC(=O)c2ccco2)cc1 | < 1
79 | COc1ncc(-c2n[nH]c3c2CC(=O)N(c2ccccc2)C3)cn1 | 5.46 (≈ 17 µM)
80 | COC(=O)c1cc(Cl)ccc1NC(=O)CSc1ncc(S(=O)(=O)c2ccc(Br)cc2)c(=O)[nH]1 | 59.1 (≈ 103 µM)
81 | O=C(c1ccccc1)N1CCC(c2nn(-c3ccc(F)cc3)c(=O)[nH]2)CC1 | > 54
82 | COc1ccc(-c2nc(-c3c(C)noc3C)cc3c2cc(C)n3CCN(C)C)cc1OC | > 96
83 | CC[C@H](Nc1ncnc2nc[nH]c12)c1nc2cccc(F)c2c(=O)n1-c1ccccc1 | > 61
84 | COc1cccc(CNc2ccc(S(=O)(=O)Nc3ncccn3)cc2)c1O | > 57
85 | CNC(=O)C1=C(C)NC(Nc2nc3ccccc3o2)=NC1c1[nH]ncc1Cl (centres undefined) | > 57
86 | O=C(COC(=O)CCC(=O)c1cccs1)NCc1ccco1 | > 47
87 | Cc1ccnc(NC(=S)N2CCC(c3cccc(C(F)(F)F)c3)CC2)c1 | 7.75 (≈ 20.4 µM)
88 | COc1cccc(N2CCN(c3ncc4c(n3)CCN(Cc3ccc(Br)cc3)C4)CC2)c1 | < 1
89 | Cc1cccc(-c2noc([C@@H]3Cc4nc[nH]c4CN3)n2)c1 | 18.3 (≈ 65 µM)
90 | COc1cc([C@@H]2c3cc4c(cc3[C@H](O)[C@H]3COC(=O)[C@H]23)OCO4)cc(OC)c1OC | > 61
91 | O=C(Nc1ccc2oc(-c3ccncc3)nc2c1)c1ccccc1Cl | < 1
92 | Cc1cccc(S(=O)(=O)Nc2cnccc2C(=O)Nc2nc(-c3ccccc3)cs2)c1 | 21.8 (≈ 48.3 µM)
93 | CC1CCN(C(=O)c2ccc(-c3ccc(N4CCSCC4)nc3)cc2)CC1 | 2.44 (≈ 6.4 µM)
94 | CCOC(=O)C1CCN(c2ncnc3c2c(-c2ccccc2)cn3-c2ccccc2)CC1 | < 1
95 | O=C(NC1CC1)C1CCCN1C(=O)c1cccc(-c2ccccn2)c1 (centres undefined) | > 74
96 | Cc1ccc(NC(=O)c2ccncc2NS(=O)(=O)c2ccc(C)cc2)cc1 | 47.5 (≈ 125 µM)
97 | O=S(=O)(c1ccccc1)c1nc(-c2ccc(F)cc2)oc1N1CCCCCC1 | < 1
98 | COc1ccc(NC(=O)c2[nH]c(C)c(C(C)=O)c2C)cc1S(=O)(=O)N1CCCCCC1 | 3.11 (≈ 6.94 µM)
99 | c1cc(OCCN2CCCCC2)cc(-c2n[nH]c3ccc(-c4ncn[nH]4)cc23)c1 | > 38
